Holding throughout (format): cell-based
For experiment [1], the system named is A549 cells. The experiment in a line: Cell growth, CellTiter-Glo Luminescent Cell Viability Assay, A549. The note with it: Homo sapiens, 72 h incubation. The text has this: (§1) CellTiter-Glo® Luminescent Cell Viability Assay (Promega) is a homogeneous method of determining the number of viable cells in culture based on quantitation of the present ATP, which indicates the presence of metabolically active cells. The homogeneous assay procedure involves addition of a single reagent (CellTiter-Glo®Reagent) directly to the cells, which leads to cell lysis and generation of a luminescent signal proportional to the amount of the ATP and the number of cells present in culture. The assay relies on the properties of a proprietary thermostable luciferase (Ultra-Glo® recombinant luciferase), which generates a luminescent signal.
(§2) K562, A549 and HCT-116 cells, in exponential growth, were incubated for 72 h with different concentrations of the inhibitors. After 72 h, a volume of CellTiter-Glo® Reagent equal to the volume of cell culture medium was added. The content was mixed for 2 min to induce cell lysis. The luminescence was recorded after further 10 min at RT in order to obtain a stabilized luminescent signal.
(§3) The IC50 was calculated using GraphPad Software.
(§4) IC50 results were allocated to one of 3 ranges as follows: Range A: IC50≦1.0 μM; Range B: from 1.0 to 3.0 μM; Range C: IC50≧3.0 μM.
On the technique in general: ATP-based viability assays read luminescence as a measure of living cells.

Experiment [2] has as its system K562 cells. The experiment in a line: Cell growth, CellTiter-Glo Luminescent Cell Viability Assay, K562. The note with it: Homo sapiens, 72 h incubation.
From the text: as §1, §2, §3, §4

For experiment [3], the system named is HCT-116 cells. As to the kind of experiment: Cell growth, CellTiter-Glo Luminescent Cell Viability Assay, HCT-116. The note with it: Homo sapiens, 72 h incubation, read-out: IC50 HCT116.
From the text: as §1, §2, §3, §4

Structures can show the parent of a compound that is named as a salt. Some results are limits rather than exact numbers.

The IC50 is the concentration needed to halve the response being measured. For the compound `O=C(/C=C/c1cccc(/C=C/C(=O)N2CCCC(c3ccccc3)C2)n1)NO` (racemic) [Example 25, (±)-(E)-N-Hydroxy-3-{6-[(E)-3-oxo-3-(3-phenyl-piperidin-1-yl)-propenyl]-pyridin-2-yl}-acrylamide hydrochloride], the concentration for half-maximal inhibition (IC50) in experiment [1], in experiment [2] and in experiment [3] was not above 1000 nM throughout.
Consider `O=C(/C=C/c1cccc(/C=C/C(=O)N2CCNC(c3ccccc3)C2)n1)NO` (racemic) [Example 33, (±)-(E)-N-Hydroxy-3-{6-[(E)-3-oxo-3-(3-phenyl-piperazin-1-yl)-propenyl]-pyridin-2-yl}-acrylamide hydrochloride], for which the IC50 in experiment [1] was not below 3000 nM; in experiment [2], 1000 to 3000 nM; in experiment [3] it was 1000 to 3000 nM.
Turning to `Cc1ccccc1C1CCCN(C(=O)/C=C/c2cccc(/C=C/C(=O)NO)n2)C1` (racemic) [Example 42, (±)-(E)-N-Hydroxy-3-{6-[(E)-3-oxo-3-(3-o-tolyl-piperidin-1-yl)-propenyl]-pyridin-2-yl}-acrylamide hydrochloride], the IC50 was not above 1000 nM in experiment [1], not above 1000 nM in experiment [2] and 1000 to 3000 nM in experiment [3].
For `Cc1cccc(C2CCCN(C(=O)/C=C/c3cccc(/C=C/C(=O)NO)n3)C2)c1` (racemic) [Example 43, (±)-(E)-N-Hydroxy-3-{6-[(E)-3-oxo-3-(3-m-tolyl-piperidin-1-yl)-propenyl]-pyridin-2-yl}-acrylamide hydrochloride], the IC50 in experiment [1], in experiment [2] and in experiment [3] was not above 1000 nM throughout.
In the case of `O=C(/C=C/c1cccc(/C=C/C(=O)N2CCCC(c3cccc4ccccc34)C2)n1)NO` (racemic) [Example 44, (±)-(E)-N-Hydroxy-3-{6-[(E)-3-(3-naphthalen-1-yl-piperidin-1-yl)-3-oxo-propenyl]-pyridin-2-yl}-acrylamide hydrochloride], the figures for the concentration for half-maximal inhibition (IC50) in experiment [1], in experiment [2] and in experiment [3] were 1000 to 3000 nM, not above 1000 nM and not above 1000 nM, respectively.
With `Cc1ccc(C2CCCN(C(=O)/C=C/c3cccc(/C=C/C(=O)NO)n3)C2)cc1` (racemic) [Example 46, (±)-(E)-N-Hydroxy-3-{6-[(E)-3-oxo-3-(3-p-tolyl-piperidin-1-yl)-propenyl]-pyridin-2-yl}-acrylamide hydrochloride], the 50% inhibitory concentration (IC50) is 1000 to 3000 nM in experiment [1], not above 1000 nM in experiment [2] and not above 1000 nM in experiment [3].
Regarding `O=C(/C=C/c1cccc(/C=C/C(=O)N2CCCC(c3ccc4ccccc4c3)C2)n1)NO` (racemic) [Example 47, (±)-(E)-N-Hydroxy-3-{6-[(E)-3-(3-naphthalen-2-yl-piperidin-1-yl)-3-oxo-propenyl]-pyridin-2-yl}-acrylamide hydrochloride], the 50% inhibitory concentration (IC50) in experiment [1], in experiment [2] and in experiment [3] was not above 1000 nM in each case.
On to `O=C(/C=C/c1cccc(/C=C/C(=O)N2CCCC(c3ccc(F)cc3)C2)n1)NO` (racemic) [Example 48, (±)-(E)-3-(6-{(E)-3-[3-(4-Fluoro-phenyl)-piperidin-1-yl]-3-oxo-propenyl}-pyridin-2-yl)-N-hydroxy-acrylamide hydrochloride], for which the results for the IC50 in experiment [1], in experiment [2] and in experiment [3] were 1000 to 3000 nM, not above 1000 nM and not above 1000 nM, respectively.
On to `O=C(/C=C/c1cccc(/C=C/C(=O)N2CCC(c3ccccc3)C2)n1)NO` (racemic) [Example 52, (±)-(E)-N-Hydroxy-3-{6-[(E)-3-oxo-3-(3-phenyl-pyrrolidin-1-yl)-propenyl]-pyridin-2-yl}-acrylamide hydrochloride], for which the figures for the half-inhibitory concentration (IC50) in experiment [1], in experiment [2] and in experiment [3] were not below 3000 nM, 1000 to 3000 nM and 1000 to 3000 nM, respectively.
For the compound `O=C(/C=C/c1cccc(/C=C/C(=O)N2CCCCC2c2ccccc2)n1)NO` (racemic) [Example 53, (±)-(E)-N-Hydroxy-3-{6-[(E)-3-oxo-3-(2-phenyl-piperidin-1-yl)-propenyl]-pyridin-2-yl}-acrylamide hydrochloride], the half-maximal inhibitory concentration (IC50) was 1000 to 3000 nM in experiment [1], not above 1000 nM in experiment [2] and not above 1000 nM in experiment [3].

(Values after patent US20110105474A1, “HETEROCYCLIC DERIVATIVES AS HDAC INHIBITORS” (DAC S.r.l., priority 2008, published 2011).)
